Reference: patent US9371387B2 (GACHON UNIVERSITY OF INDUSTRY-ACADEMIC COOPERATION …, priority 2011, dated 2016)

Test system: human macrophage cells
Assay: AGE-albumin synthesis and release by macrophages under oxidative stress (ELISA)
Type: cell-based
Details: FIG. 3
Experimental: For the in vitro study, immortal human macrophage cells were employed. The macrophages were grown in DMEM (Dulbecco's modified Eagle's medium, Gibco)-high glucose supplemented with 10% heat-inactivated FBS (fetal bovine serum, Gibco) and […] gentamicin (Sigma-Aldrich) at 37° C. in a 5% CO2 atmosphere.
After incubation at 4° C. for 12 hrs, the plates were washed three times with 1×PBS to remove the antibody which remained non-immobilized to the well, and then was filled with 5% BSA. […] After the plates were washed three time with 1×PBS to remove the antigens which remained unreacted, an anti-AGE antibody (Abcam) was applied at a concentration of 1 ug/ml to each well and incubated at room temperature for 2 hrs. The antibody remaining unreacted was washed off with 1×PBS. Each well was incubated with 1 ug/ml peroxidase-conjugated secondary antibody (Vector laboratory) at room temperature for 2 hrs and washed with 1×PBS to remove the secondary antibodies which remained unreacted. Color was developed with TMB (3,3′,5,5′-tetramethylbenzidine) at room temperature for 20 min. When the TMP buffer turned dark blue, the color development was stopped with 2NH2SO4. Absorbance at 450 nm was read on an ELISA reader (VERSA Max, Molecular Devices) (FIG. 1).

SMILES | amount of AGE-albumin (macrophages exposed to hydrogen peroxide) | expression level of AGE-albumin (macrophages, addition of antioxidant, irrespective of hypoxia (H2O2))
OO [hydrogen peroxide] | increased in a concentration-dependent manner | 
O=C1O[C@H]([C@@H](O)CO)C(O)=C1O [ascorbic acid] |  | drastically reduced
